Experimental data published in US20220315554A1, “COMPOUNDS COMPRISING A […] LIGAND AND USE THEREOF” (priority 2019, published 2022).
Numbered stars: 1 amine (or outer) side, 2 acyl side, 3 side chain; on linkers, the order of the positions; unused ones are H or OH. Bridge positions count the residues as written; N and C are the ends. Square brackets hold non-standard residues; d marks the D form. Peptide text beside a SMILES is read from it. * marks the point of attachment. X22 = O=C1CN2CCN3CCN(CC(=O)N4CCN(Cc5cc(C[*:1])cc(C[*:2])c5)CC4)CCN(CC2)CC(=O)[O][Lu]([O]1)[O]C(=O)C3; X7 = O=C(CN1CCN2CCN3CCN(CC1)CC(=O)[O][In]([O]C(=O)C2)[O]C(=O)C3)NCCSCc1cc(C[*:1])cc(C[*:2])c1; mXylylene = c1cc(C[*:1])cc(C[*:2])c1; Pentanesulfonyl = CCCCCS(=O)(=O)*; Hexanoyl = CCCCCC(=O)*; Sar = CNCC(=O)O

What was measured:
Human recombinant FAP [1] = target: T1, Human recombinant FAP (Homo sapiens, UniProt Q12884); assay: Surface plasmon resonance (Biacore) assay; assay type: binding
T1 sequence (Q12884 1-760): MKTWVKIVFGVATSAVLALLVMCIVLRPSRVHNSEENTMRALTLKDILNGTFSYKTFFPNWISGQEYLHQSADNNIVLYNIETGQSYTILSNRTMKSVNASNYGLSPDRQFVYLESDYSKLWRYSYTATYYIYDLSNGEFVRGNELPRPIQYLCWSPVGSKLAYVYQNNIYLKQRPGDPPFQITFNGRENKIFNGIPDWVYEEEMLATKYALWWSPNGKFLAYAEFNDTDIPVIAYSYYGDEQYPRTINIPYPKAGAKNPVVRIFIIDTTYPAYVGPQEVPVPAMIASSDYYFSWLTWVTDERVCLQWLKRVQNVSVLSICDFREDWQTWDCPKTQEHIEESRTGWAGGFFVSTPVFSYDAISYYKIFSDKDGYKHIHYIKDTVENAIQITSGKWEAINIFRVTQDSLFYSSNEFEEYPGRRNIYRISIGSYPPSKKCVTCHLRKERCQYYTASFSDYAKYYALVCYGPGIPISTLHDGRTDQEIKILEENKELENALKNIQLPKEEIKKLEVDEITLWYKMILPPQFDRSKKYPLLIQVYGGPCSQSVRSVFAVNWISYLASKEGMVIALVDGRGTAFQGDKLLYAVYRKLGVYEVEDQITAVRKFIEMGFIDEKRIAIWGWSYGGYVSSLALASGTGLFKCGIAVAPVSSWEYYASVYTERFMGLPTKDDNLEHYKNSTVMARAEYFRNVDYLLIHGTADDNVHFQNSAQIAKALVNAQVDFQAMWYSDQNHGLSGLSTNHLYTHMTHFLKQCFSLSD

Human recombinant FAP [2] = target: T1, Human recombinant FAP; assay: FRET-based FAP protease activity assay; assay type: biochemical; design: purchased R&D systems 3715-SE; conditions: pIC50 Category (Activity), FRET substrate, 37° C.
[3] = target: T2, FAP-expressing human WI-38 fibroblasts (Homo sapiens, UniProt Q12884); assay: Competitive FACS binding assay; conditions: pIC50 Category (FACS), competition with 3 nM Cy5-labeled compound, 4° C., 1 hour
T2 construct: FAP-expressing human WI-38 fibroblasts (ECACC) were cultured in EMEM; host or cells: WI-38 human fibroblasts
T2 sequence (Q12884 1-760): T1 sequence (Q12884 1-760)
Method: Cells were analyzed in an Attune NxT flow cytometer. […]

CCCCCS(=O)(=O)N[C@H]1CSCc2cccc(c2)CSC[C@@H](C(=O)N[C@@H](CC(=O)O)C(N)=O)NC(=O)[C@H](Cc2ccccc2)NC(=O)[C@H](CCC(N)=O)NC(=O)[C@H]([C@@H](C)O)NC(=O)[C@@H]2CCCN2C(=O)[C@@H]2CCCN2C1=O [3BP-3514, Pentyl-SO2-[Cys(3MeBn)-Pro-Pro-Thr-Gln-Phe-Cys]-Asp-NH2] (Pentanesulfonyl-CPPTQFCD-NH2; linker 1-7 via mXylylene)
< 10 nM: Kd (Human recombinant FAP [1]) | IC50 (Human recombinant FAP [2]; recombinant human FAP) | IC50 ([3]; WI-38 fibroblasts)

CCCCCC(=O)N[C@H]1CSCc2cc(CSCCNC(=O)CN3CCN(CC(=O)O)CCN(CC(=O)O)CCN(CC(=O)O)CC3)cc(c2)CSC[C@@H](C(=O)O)NC(=O)[C@H](Cc2cccc3ccccc23)NC(=O)[C@H](CCC(N)=O)NC(=O)[C@H]([C@@H](C)O)NC(=O)[C@@H]2CCCN2C(=O)[C@@H]2CCCN2C1 [3BP-3650, Hex-[Cys(tMeBn(DOTA-AET))-Pro-Pro-Thr-Gln-1Ni-Cys]-OH]
< 10 nM: Kd (Human recombinant FAP [1]) | IC50 (Human recombinant FAP [2]; recombinant human FAP) | IC50 ([3]; WI-38 fibroblasts)

CCCCCC(=O)N[C@H]1CSCc2cc(CSCCNC(=O)CN3CCN4CCN5CCN(CC3)CC(=O)[O][In]([O]C(=O)C4)[O]C(=O)C5)cc(c2)CSC[C@@H](C(=O)O)NC(=O)[C@H](Cc2ccccc2)NC(=O)[C@H](CCC(N)=O)NC(=O)[C@H]([C@@H](C)O)NC(=O)[C@@H]2CCCN2C(=O)CN(C)C1=O [3BP-3716, Hex-[Cys(tMeBn(InDOTA-AET))-Nmg-Pro-Thr-Gln-Phe-Cys]-OH] (Hexanoyl-C[Sar]PTQFC-OH; linker 1-7 via X7)
< 10 nM: Kd (Human recombinant FAP [1]) | IC50 (Human recombinant FAP [2]) | IC50 [3]

CCCCCS(=O)(=O)N[C@H]1CSCc2cc(CSCCNC(=O)CN3CCN(CC(=O)O)CCN(CC(=O)O)CCN(CC(=O)O)CC3)cc(c2)CSC[C@@H](C(=O)O)NC(=O)[C@H](Cc2ccccc2)NC(=O)[C@H](CCC(N)=O)NC(=O)[C@H]([C@@H](C)O)NC(=O)[C@@H]2CCCN2C(=O)[C@@H]2CCCN2C1=O [3BP-3690, Pentyl-SO2-[Cys(tMeBn(DOTA-AET))-Pro-Pro-Thr-Gln-Phe-Cys]-OH]
< 10 nM: Kd (Human recombinant FAP [1]) | IC50 (Human recombinant FAP [2]) | IC50 [3]

CCCCCC(=O)N[C@H]1CSCc2cc(cc(CN3CCN(C(=O)CN4CCN5CCN6CCN(CC4)CC(=O)[O][Lu]([O]C(=O)C6)[O]C(=O)C5)CC3)c2)CSC[C@@H](C(=O)N[C@@H](CC(=O)O)C(N)=O)NC(=O)[C@H](Cc2ccccc2)NC(=O)[C@H](CCC(N)=O)NC(=O)[C@H]([C@@H](C)O)NC(=O)[C@@H]2CCCN2C(=O)[C@@H]2CCCN2C1=O [3BP-3591, Lutetium-Complex of Hex-[Cys(tMeBn(DOTA-PP))-Pro-Pro-Thr-Gln-Phe-Cys]-Asp-NH2] (Hexanoyl-CPPTQFCD-NH2; linker 1-7 via X22)
< 10 nM: Kd (Human recombinant FAP [1]) | IC50 (Human recombinant FAP [2]; recombinant human FAP) | IC50 ([3]; WI-38 fibroblasts)

CCCCCC(=O)N[C@H]1CSCc2cc(CSCCNC(=O)CC[C@@H]3C(=O)[O][Ga]([O]C(=O)CN(C)CC)[O]C(=O)CN(C)CCN3CC)cc(c2)CSC[C@@H](C(=O)O)NC(=O)[C@H](Cc2ccccc2)NC(=O)[C@H](CCC(N)=O)NC(=O)[C@H]([C@@H](C)O)NC(=O)[C@@H]2CCCN2C(=O)[C@@H]2CCCN2C1=O [3BP-4184, Gallium-Complex of Hex-[Cys(tMeBn(NODAGA-AET))-Pro-Pro-Thr-Gln-Phe-Cys]-OH]
< 10 nM: Kd (Human recombinant FAP [1]) | IC50 (Human recombinant FAP [2]) | IC50 [3]

CCCCCC(=O)N[C@H]1CSCc2cc(CSCCNC(=O)CN3CCN4CCN5CCN(CC3)CC(=O)[O][In]([O]C(=O)C4)[O]C(=O)C5)cc(c2)CSC[C@@H](C(=O)N(C)CC(=O)O)NC(=O)[C@H](Cc2ccccc2)NC(=O)[C@H](CCC(N)=O)NC(=O)[C@H]([C@@H](C)O)NC(=O)[C@@H]2CCCN2C(=O)[C@@H]2CCCN2C1=O [3BP-3715, Hex-[Cys(tMeBn(InDOTA-AET))-Pro-Pro-Thr-Gln-Phe-Cys]-Nmg-OH]
< 10 nM: Kd (Human recombinant FAP [1]) | IC50 (Human recombinant FAP [2]) | IC50 [3]
